Results as given in patent US20120059005A1, “COMBINATION OF (A) A PHOSPHOINOSITIDE 3-KINASE INHIBITOR AND (B) AN ANTIDIABETIC COMPOUND FOR USE IN THE TREATMENT OF PROLIFERATIVE DISEASES” (NOVARTIS AG, priority 2009, published 2012).
Where two headings read alike, the source gives them in different places.

Columns and labels:
[1] = Protocol: 0.2 mL of H520 tumor cell suspension (1×10^7 cells) is injected subcutaneously in the right flank of 8-week old female nu/nu (nude) mice (Harlan Laboratories, Indianapolis, Ind.) having a body weight (BW) range of 18.1-26.9 g on Day 1 of the study. Tumors are monitored twice weekly and then daily as their mean volume approaches 120-180 mm^3. […] Tumor weight can be estimated with the assumption that 1 mg is equivalent to 1 mrn^3 of tumor volume.
(§1) The 11 groups of nude mice are treated as follows. One group of eight mice serves as Controls (C or Control) for all analyses and is administered intraperitoneally (i.p.) 50 mM sodium acetate at pH 4 (Vehicle 1) and then administered by oral gavage (p.o.) a composition comprising 10% N-methylpyrrolidone: 90% polyethylene glycol 300 (PEG 300) (Vehicle 2). […] Metformin is dissolved in 50 mM sodium acetate at pH 4 for dosing,
Compound C is stored at −20° C. protected from light. Stock solutions (10×) in 100% N-methylpyrrolidone (NMP) are prepared every five days, aliquotted, and stored in the dark at room temperature. On each treatment day, stock solution aliquots are diluted with polyethylene glycol (PEG300) to provide the formulated drug (Compound A or Compound C) in 10% NMP: 90% PEG300, Dosing solutions are protected from light and the formulated drug is administered within 1 hour after preparation.
For combination therapies, Compound A or Compound C is administered by oral gavage (p.o.) within 30 minutes after the intraperitoneal (i.p.) administration of metformin, except on Day 20 when Compound A or Compound C is given immediately after metformin.
(§2) Paclitaxel (Natural Pharmaceuticals, Inc., Beverly, Mass., USA) is administered by bolus tail-vein injections (i.v.) once daily on alternate days for five doses. Paclitaxel is dissolved in 50% ethanol and 50% Cremophor® EL to prepare a 10× stock solution stored at room temperature. On each day of dosing, an aliquot of the pad itaxel stock solution is diluted with 5% dextrose in water to yield a dosing solution containing 5% ethanol and 5% Cremophor® EL.

[2] = test system: H460 non-small cell lung tumors; assay: H460 xenograft 12-day tumor growth inhibition assay; assay type: in vivo, nude mice; conditions: for Mean Tumor Vol. Change / Regression / T/C: Day 12
Protocol: H460 human non-small cell lung cancer (NSCLC) cells are treated with, different doses of 2-Methyl-2-[4-(3-methyl-2-oxo-8-quinolln-3-yl-2,3-dihydro-imidazo[4, 5-c]quinolin-1-yl)-phenyl]-propionitrile monotosylate salt (also known as COMPOUND A) or 5,-(2,6-di-rnorpholin-4-yl-pyrimidin-4-yl)-4-trifluoromethyl-pyridin-2-ylamine hydrochloride salt (also known as COMPOUND C), a single dose of metformin or both agents in combination, The H460 human NSCLC cells (NCl-H460. ATCC-HTB-177, available from American Type Culture Collection, FRockville, Md. US) are derived from the pleural fluid of a patient with large cell cancer of the lung.
H460 tumor cells are grown in RPMI 1640 medium containing 100 units/mL penicillin G sodium, 100 μg/mL streptomycin sulfate, and 25 μg/mL gentamicin. The medium is supplemented with 10% fetal bovine serum and 2 mM glutamine. The cells are cultured in tissue culture flasks in a humidified incubator at 37° C., in an atmosphere of 5% CO2 and 95% air. The cells are harvested for injection into 9-week old female nu/nu (nude) mice (Harlan Laboratories, Indianapolis, Ind.) by detaching the monolayers with 2× trypsin and resuspending at 5×10^7 cells/mL in phosphate-buffered saline.
0.2 mL of H460 tumor cell suspension (1×10^7 cells) is injected subcutaneously in the right flank of 9-week old female nu/nu (nude) mice (Harlan Laboratories, Indianapolis, Ind.) having a body weight (BW) range of 18.1-26.9 g on Day 1 of the study. Tumors are monitored twice weekly and then daily as their mean volume approaches 100-150 mm^3. Ten days after implantation, the mice are sorted into 11 groups of eight mice having individual tumor sizes of 75-196 mm^3 and a group mean tumor size of 119-122 mm^3. Tumor volume in mm^3 is determined using the formula [(width)^2×(length)]/2, where width width of the tumor in mm and length length of the tumor in mm. Tumor weight can be estimated with the assumption that 1 mg is equivalent to 1 mm^3 of tumor volume.
as §1, with “N-methylpyrrolidone” for “N-methylpyrrolidone:”, “(PEG300)” for “(PEG 300)”, “dosing.” for “dosing,”
Compound A is stored at −20° C. Compound C is stored at −20° C. protected from light. Stock solutions (10×) in 100% N-rnethylpyrrolidone (NMP) are prepared every five days, aliquotted, and stored in the dark at room temperature. On each treatment day, stock solution aliquots are diluted with polyethylene glycol (PEG300) to provide the formulated drug (Compound A or Compound C) in 10% NMP: 90% PEG300. Dosing solutions are protected from light, and the formulated drug is administered within 1 hour after preparation.
For combination therapies, Compound A or Compound C are administered by oral gavage (p.o.) within 30 minutes after the intraperitoneal (i.p.) administration of metformin, except on Day 20 when Compound A or Compound C is given immediately after metformin.
as §2, with “50% Crernophor®” for “50% Cremophor®”, “the paclitaxel” for “the pad itaxel”
In all groups, the dosing volume of 10 mL/kg (0.2 mL/20 g mouse) is scaled to the weight of each animal as determined on the day of dosing, except on weekends when the previous BW is carried fontvard.

[3] = Compound A 41.1 mg/kg p.o., 1x daily
[4] = Compound A 68.5 mg/kg p.o., 1x daily
[5] = Compound C 32.7 mg/kg p.o., 1x daily
[6] = Compound C 54.4 mg/kg p.o., 1x daily until day 10 (stopped due to toxicity)
[7] = Metformin 192.3 mg/kg i.p., 1x daily
[8] = Paclitaxel 30 mg/kg i.v., 1x on alternate days for 5 doses

## Cn1c(=O)n(-c2ccc(C(C)(C)C#N)cc2)c2c3cc(-c4cnc5ccccc5c4)ccc3ncc21 [Compound A, 2-Methyl-2-[4-(3-methyl-2-oxo-8-quinolin-3-yl-2,3-dihydro-imidazo[4,5-c]quinolin-1-yl)-phenyl]-propionitrile]
[1]; female, nu/nu (nude), mouse, in vivo, po, 41.1 mg/kg
  Dead/Total: 0/8
[1]; female, nu/nu (nude), mouse, in vivo, po, 68.5 mg/kg
  Dead/Total: 1/8
[1]; mouse, in vivo, po, 68.5 mg/kg
  Mean Body Weight Change: −1.3%, Day 7
[2]; [3]
  Mean Tumor Vol. Change: 809 mm^3
  Regression: None
  T/C: 54% (ns,
[2]; [4]
  Mean Tumor Vol. Change: 448 mm^3
  Regression: None
  T/C: 30% (ns,

## Nc1cc(C(F)(F)F)c(-c2cc(N3CCOCC3)nc(N3CCOCC3)n2)cn1 [Compound C, 5-(2,6-di-morpholin-4-yl-pyrimidin-4-yl)-4-trifluoromethyl-pyridin-2-ylamine]
[2]; [5]
  Mean Tumor Vol. Change: 880 mm^3
  Regression: None
  T/C: 59% (ns,
[2]; [6]
  Mean Tumor Vol. Change: 110 mm^3
  Regression: None
[2]; Compound C 54.4 mg/kg p.o., 1x daily until day 10 (stopped due to toxicity), not evaluable (ne)
  T/C: 7% (ne,

## CN(C)C(=N)N=C(N)N [Metformin, dimethyldiguanide, reference compound]
[1]; [7]
  Dead/Total: 0/8
[2]; [7]
  Mean Tumor Vol. Change: 1516 mm^3
  Regression: None
  T/C: 101% (ns,
[2]; metformin in combination with COMPOUND C, overall conclusion
  enhancement of efficacy or tolerability in combination with COMPOUND C: does not appear to enhance efficacy or tolerability
[2]; metformin monotherapy at 192.3 mg/kg
  impact on tumor growth in the 12-day tumor growth inhibition assay: did not appear to impact tumor growth

## CC(=O)O[C@H]1C(=O)[C@@]2(C)[C@H]([C@H](OC(=O)c3ccccc3)[C@]3(O)C[C@H](OC(=O)[C@H](O)[C@@H](NC(=O)c4ccccc4)c4ccccc4)C(C)=C1C3(C)C)[C@]1(OC(C)=O)CO[C@@H]1C[C@@H]2O [Paclitaxel, reference compound]
[1]; [8]
  Dead/Total: 0/8
[2]; [8]
  Mean Tumor Vol. Change: 227 mm^3
  Regression: None
  T/C: 15%
